Assay results: patent US20240108614A1, “Methods of Treating Diabetic Cardiomyopathy by Inhibiting GLUT1” (University of Cincinnati, priority 2022, published 2024)

Columns and labels:
Type in all cases: in vivo
type 1 diabetic mice [1] = test: Type 1 diabetes mouse model, treatment over twelve weeks (prevention), 2D echocardiography
Experimental: To explore whether GLUT1 inhibition holds therapeutic potential against diabetic cardiomyopathy, diabetic mice were treated with a GLUT1 inhibitor (STF-31). Specifically, type 1 diabetes was induced in WT mice and mice were monitored for twelve weeks.
(§1) To evaluate the impact of GLUT1 and myocardial glucose content changes on cardiac function and structure, 2D echocardiography was performed to measure EF, FS, end-diastolic and end-systolic volumes (EDV, ESV), stroke volume (SV), and cardiac output (CO) using M-mode short axis images, automatic tracing, myocardial strain and strain rate with speckle tracking. From the pulsed wave Doppler spectral waveforms, the peak early and late diastolic transmitral velocities (E, A waves) were measured to obtain the E/A ratio.
One group of mice was treated with STF-31 for the entire twelve-weeks period.
Prior to this disclosure, treatment of diabetic patients with SGLT2 inhibitors (dapa or empagliflozin), has shown the most robust cardioprotective effects. Treatment of diabetic mice with dapa corrected hyperglycemia (FIG. 4A) and prevented systolic (FIG. 4B) and diastolic heart failure (FIG. 4C) in both early and late type 1 diabetes.

type 1 diabetic mice [2] = test: Type 1 diabetes mouse model, treatment started after cardiac dysfunction was confirmed (6 weeks) until the twelfth week
Experimental: as §1
In another mouse cohort, treatment with either STF-31 or dapa started after cardiac dysfunction was confirmed (6 weeks of type 1 diabetes) and continued until the twelfth week. This treatment corrected both systolic (FIG. 4D) and diastolic (FIG. 4E) dysfunction. Importantly, treatment with either STF-31 or dapa prevented upregulation of KLF5. Thus, inhibition of GLUT1 appears as a novel therapeutic target for diabetic cardiomyopathy that prevents activation of the cardiotoxic FOXO1-KLF5 axis.

[3] = test system: type 2 diabetic mice (HFD); test: Type 2 diabetes mouse model (high-fat diet 32 weeks, then 8 weeks of treatment); conditions: HFD type 2 diabetes mice
Source text: Similar results were shown in mouse models of type 2 diabetes, wherein mice were fed a high-fat diet (HFD) for 32 weeks prior to initiating 8 weeks of treatment with SFT-31.

[4] = treatment from 6 weeks of type 1 diabetes until twelfth week, after confirmed cardiac dysfunction

CC(C)(C)c1ccc(S(=O)(=O)NCc2ccc(C(=O)Nc3cccnc3)cc2)cc1 [STF-31]
diastolic dysfunction (mitral valve E/A ratio) (type 1 diabetic mice [1]): did not develop | plasma glucose levels (hyperglycemia) (type 1 diabetic mice [1]): persistent hyperglycemia | systolic dysfunction (type 1 diabetic mice [1]): did not develop | diastolic dysfunction (type 1 diabetic mice [2]; [4]): corrected | systolic dysfunction (type 1 diabetic mice [2]; [4]): corrected | upregulation of KLF5 (type 1 diabetic mice [2]; type 1 diabetic mice): prevented | KLF5 upregulation [3]: prevented | diastolic dysfunction [3]: did not develop | hyperglycemia [3]: persistent hyperglycemia | systolic dysfunction [3]: did not develop
